Test [1] deals with BRAF^V600E. On the set-up: method as in doi:10.1016/j.molstruc.2023.136953. The settings on record: earlier study of the authors; cited from earlier work.
The next test relates to lung cancer (A-549). As to the kind of experiment: Antiproliferative assay, A-549. The format is cell-based. The settings on record: Homo sapiens, A549; A-549 lung cancer cell line; read-out: Antiproliferative activity IC50 ± SEM (nM) A-549. As to the method: (§1) 4.2.2. Assay for antiproliferative effect
(§2) To explore the antiproliferative potential of compounds propidium iodide fluorescence assay was performed using different cell lines such as Panc-1 (pancreas cancer cell line), MCF-7 (breast cancer cell line), HT-29 (colon cancer cell line) and A-549 (epithelial cancer cell line), respectively. To calculate the total nuclear DNA, a fluorescent dye (propidium iodide, PI) is used which can attach to the DNA, thus offering a quick and precise technique. PI cannot pass through the cell membrane and its signal intensity can be considered as directly proportional to quantity of cellular DNA. Cells whose cell membranes are damaged or have changed permeability are counted as dead ones. The assay was performed by seeding the cells of different cell lines at a density of 3000-7500 cells/well (in 200μl medium) in culture plates followed by incubation for 24h at 37 °C in humidified 5%CO2/95% air atmospheric conditions. The medium was removed; the compounds were added to the plates at 10 μM concentrations (in 0.1% DMSO) in triplicates, followed by incubation for 48h. DMSO (0.1%) was used as control. After incubation, medium was removed followed by the addition of PI (25 μl, 50μg/mL in water/medium) to each well of the plates. At -80 °C, the plates were allowed to freeze for 24 h, followed by thawing at 25 °C. A fluorometer (Polar-Star BMG Tech) was used to record the readings at excitation and emission wavelengths of 530 and 620 nm for each well. The percentage cytotoxicity of compounds was calculated using the following formula:
(§3) Where ATC= Absorbance of treated cells and AC= Absorbance of control. Erlotinib was used as positive control in the assay. […]
(1 picture or pasted object on this page, not shown here)

Another test concerns colon cancer (HT-29). Briefly: Antiproliferative assay, HT-29. The format is cell-based. To be noted: Homo sapiens; HT-29 colon cancer cell line; read-out: Antiproliferative activity IC50 ± SEM (nM) HT-29. As to the method:
as §1, §2, §3

For a further test, the system named is breast cancer (MCF-7). As to the kind of experiment: Antiproliferative assay, MCF-7. The format is cell-based, human. The settings on record: Homo sapiens, MCF7; MCF-7 breast cancer cell line; read-out: Antiproliferative activity IC50 ± SEM (nM) MCF-7. As to the method:
as §1, §2, §3

Test [2] has as its system BRAF^V600E. On the set-up: method as in PMID 33279248. To be noted: earlier study of the authors; cited from earlier work.
Test [3] relates to pancreatic cancer (Panc-1). Briefly: Antiproliferative assay, Panc-1. To be noted: Homo sapiens; Panc-1 pancreatic cancer cell line; read-out: Antiproliferative activity IC50 ± SEM (nM) Panc-1. Type of test: cell-based. How it is done: as §1, §2, §3

The structures appear in SMILES notation. Read-outs that look alike come from different tables or passages of the source.

`C#Cc1cccc(Nc2ncnc3cc(OCCOC)c(OCCOC)cc23)c1` [Erlotinib, reference compound]: the IC50 in the test with BRAF^V600E [1] is […]; in the test on lung cancer (A-549) it was 30 ± 3 nM; with colon cancer (HT-29) it was 30 ± 3 nM; in the test on breast cancer (MCF-7), 40 ± 3 nM; with BRAF^V600E [2], […]; in test [3], 30 ± 3 nM.

One may read the IC50 as the midpoint of a concentration-inhibition curve.

Source of the values: publication PMC12517401, “Design, synthesis, and antiproliferative activity of new 2-amino-pyrano[3,2-c]quinoline-3-carbonitriles as potential EGFR, BRAF^V600E, and HER-2 inhibitors” (RSC Advances, 2025).
